Assays:
Assay type in all cases: biochemical
[1] = test system: α-chymotrypsin; experiment: Inhibition of α-chymotrypsin (Succ-Ala-Ala-Pro-Phe-AMC substrate); settings: @10 uM; 0.03 mM Succ-Ala-Ala-Pro-Phe-AMC, pH 7.5
Description: (§1) To evaluate inhibitory activity, stock solutions (40 times concentrated) of each compound to be tested were prepared in 100% anhydrous DMSO and 5 μL of each inhibitor preparation were aliquoted into each of three wells of a 96-well plate. Calpain I, prepared by a modification of the method of W. J. Lee et al. (Biochem. Internatl. 22: 163-171 (1990)), was diluted into assay buffer (i.e., 50 mM Tris, 50 mM NaCl, 1 mM EDTA, 1 mM EGTA, and 5 mM-mercaptoethanol, pH 7.5 including 0.2 mM Succ-Leu-Tyr-MNA) and 175 μL aliquoted into the same wells containing the independent inhibitor stocks as well as to positive control wells containing 5 μL DMSO, but no compound. […] Substrate hydrolysis was monitored every 5 minutes for a total of 30 minutes using a Fluoroskan II fluorescence plate reader. […]
Additionally, because α-chymotrypsin is not a calcium sensitive enzyme and is constitutively active, following addition of inhibitor stocks to the 96 well plates, 100 μl of a 2-fold concentrated stock of enzyme in dilution buffer was first added and the reaction started by addition of 100 μl of a 2-fold concentrated stock of substrate in assay buffer. Substrate hydrolysis was monitored every 5 minutes up to 30 minutes using a Fluoroskan II ([…]). […]

[2] = test system: cathepsin B; experiment: Inhibition of cathepsin B activity (Cbz-Phe-Arg-AMC substrate); settings: @1 uM; 0.1 mM Cbz-Phe-Arg-AMC, pH 6.0
Description: as §1
(§2) Inhibition of calpain I activity was calculated as the percent decrease in the rate of substrate (S) hydrolysis in the presence of inhibitor (I) relative to the rate in its absence (o). […] The results were plotted as % inhibition versus log inhibitor concentration and the IC50 was calculated from linear regression of the data.
(§3) Additionally, the order of reagents added to the plate was altered because both enzymes are constitutively active. […] Substrate hydrolysis was monitored using a Fluoroskan II (ex=390 nm; em=460 nm).

[3] = test system: cathepsin L; experiment: Inhibition of cathepsin L activity (Cbz-Phe-Arg-AMC substrate); settings: @1 uM; 0.006 mM Cbz-Phe-Arg-AMC, pH 6.0
Description: as §1, §2, §3

[4] = molecular target: T1, Calpain I (Homo sapiens, UniProt P07384); experiment: Inhibition of calpain I activity (fluorescence, Succ-Leu-Tyr-MNA substrate hydrolysis); settings: 0.2 mM Succ-Leu-Tyr-MNA, pH 7.5
T1 construct: made in house
T1 sequence (P07384 1-714): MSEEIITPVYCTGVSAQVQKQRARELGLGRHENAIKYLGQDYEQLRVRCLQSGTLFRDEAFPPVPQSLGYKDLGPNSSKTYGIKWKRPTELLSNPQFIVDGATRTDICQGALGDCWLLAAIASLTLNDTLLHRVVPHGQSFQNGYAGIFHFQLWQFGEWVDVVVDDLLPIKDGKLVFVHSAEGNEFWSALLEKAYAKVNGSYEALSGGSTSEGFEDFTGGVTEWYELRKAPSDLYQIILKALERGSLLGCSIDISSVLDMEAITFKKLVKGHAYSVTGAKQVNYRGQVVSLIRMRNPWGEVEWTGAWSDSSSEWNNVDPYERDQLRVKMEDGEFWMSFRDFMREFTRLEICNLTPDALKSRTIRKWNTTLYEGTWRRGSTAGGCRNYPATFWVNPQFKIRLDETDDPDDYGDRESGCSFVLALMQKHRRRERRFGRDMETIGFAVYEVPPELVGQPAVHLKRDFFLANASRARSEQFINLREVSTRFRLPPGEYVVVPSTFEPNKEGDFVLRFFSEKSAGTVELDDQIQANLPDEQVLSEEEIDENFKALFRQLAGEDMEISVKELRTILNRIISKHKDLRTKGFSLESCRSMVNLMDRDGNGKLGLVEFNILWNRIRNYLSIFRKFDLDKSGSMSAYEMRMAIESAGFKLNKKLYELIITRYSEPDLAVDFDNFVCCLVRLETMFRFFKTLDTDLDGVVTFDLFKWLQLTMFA
T1 sequence (P04632 1-268 partner): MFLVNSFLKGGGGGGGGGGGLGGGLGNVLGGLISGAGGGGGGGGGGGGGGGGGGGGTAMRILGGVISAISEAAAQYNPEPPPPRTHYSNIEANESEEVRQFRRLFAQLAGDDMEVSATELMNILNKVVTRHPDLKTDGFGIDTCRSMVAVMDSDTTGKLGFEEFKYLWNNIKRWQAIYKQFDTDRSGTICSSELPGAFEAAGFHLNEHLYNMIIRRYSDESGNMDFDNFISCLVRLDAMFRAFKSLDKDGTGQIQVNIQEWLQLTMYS
Description: To evaluate inhibitory activity, stock solutions (40 times concentrated) of each compound to be tested were prepared in 100% anhydrous DMSO and 5 μL of each inhibitor preparation were aliquoted into each of three wells of a 96-well plate. Calpain I, prepared by a modification of the method of W. J. Lee et al. (Biochem. Internatl. 22: 163-171 (1990)), was diluted into assay buffer (i.e., 50 mM Tris, 50 mM NaCl, 1 mM EDTA, 1 mM EGTA, and 5 mM-mercaptoethanol, pH 7.5 including 0.2 mM Succ-Leu-Tyr-MNA) and 175 μL aliquoted into the same wells containing the independent inhibitor stocks as well as to positive control wells containing 5 μL DMSO, but no compound. To start the reaction, 20 μL of 50 mM CaCl2 in assay buffer was added to all wells of the plate, excepting three, which were used as background signal baseline controls. Substrate hydrolysis was monitored every 5 minutes for a total of 30 minutes using a Fluoroskan II fluorescence plate reader. Substrate hydrolysis in the absence of inhibitor was linear for up to 15 minutes.
as §2

[5] = test system: thrombin; experiment: Inhibition of thrombin (Bz-Phe-Val-Arg-AMC substrate); settings: @10 uM; 25 μM Bz-Phe-Val-Arg-AMC, pH 7.5

IC50 [4]: 0.012 µM
SMILES: CC(C)CC(CC(=O)[C@H](CC(C)C)NC(=O)OCc1ccccc1)C(=O)N[C@H](C=O)CC(C)C (stereo partly drawn) [compound 7, Z-Leu-Psi[COCH2 ]Leu-Leu-H]
Chymotrypsin % I [1]: 53%
Cat B % I [2]: 97%
Cat L % I [3]: 100%
Thrombin % I [5]: 0%

— patent US5723580A, “Ketomethylene group-containing aldehyde cysteine and serine protease inhibitors” (Cephalon, Inc., priority 1996, dated 1998)
